# Laboratory results taken from PubChem BioAssay AID2060504 (Molecular Pharmacology Branch, DTP, NCI, 2025).
# Tested on: 636577-100-R-J1-PDC complex spheroid viability
# Assay: Anticancer human tumor 636577-100-R-J1-PDC patient-derived endometrial adenocarcinoma cell line growth inhibition [GQUAD]
# Settings: for IC50: curve of first compound; for viability, T/C: stronger effect = lower value
# Method in brief: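 Multi-cell-type spheroids of tumor cells with HUVEC and mesenchymal stem cells, treated with drug combinations. Concentrations descend in half-log steps from near clinical Cmax, or from 10 microM where Cmax is unknown; viability read-out.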
# [1] = second compound 0.0316 µM, first compound 0.0316 µM
# [2] = second compound 0.0316 µM, first compound 0.1 µM
# [3] = second compound 0.0316 µM, first compound 0.316 µM
# [4] = second compound 0.0316 µM, first compound 1 µM
# [5] = second compound 0.0316 µM, first compound 3.16 µM
# [6] = second compound 0.0316 µM, first compound 10 µM
# [7] = second compound 0.1 µM, first compound 0.0316 µM
# [8] = second compound 0.1 µM, first compound 0.1 µM
# [9] = second compound 0.1 µM, first compound 0.316 µM
# [10] = second compound 0.1 µM, first compound 1 µM
# [11] = second compound 0.1 µM, first compound 3.16 µM
# [12] = second compound 0.1 µM, first compound 10 µM
# [13] = second compound 0.316 µM, first compound 0.0316 µM
# [14] = second compound 0.316 µM, first compound 0.1 µM
# [15] = second compound 0.316 µM, first compound 0.316 µM
# [16] = second compound 0.316 µM, first compound 1 µM
# [17] = second compound 0.316 µM, first compound 3.16 µM
# [18] = second compound 0.316 µM, first compound 10 µM
# [19] = second compound 1 µM, first compound 0.0316 µM
# [20] = second compound 1 µM, first compound 0.1 µM
# [21] = second compound 1 µM, first compound 0.316 µM
# [22] = second compound 1 µM, first compound 1 µM
# [23] = second compound 1 µM, first compound 3.16 µM
# [24] = second compound 1 µM, first compound 10 µM
# [25] = second compound 3.16 µM, first compound 0.0316 µM
# [26] = second compound 3.16 µM, first compound 0.1 µM
# [27] = second compound 3.16 µM, first compound 0.316 µM
# [28] = second compound 3.16 µM, first compound 1 µM
# [29] = second compound 3.16 µM, first compound 3.16 µM
# [30] = second compound 3.16 µM, first compound 10 µM
# [31] = second compound 10 µM, first compound 0.0316 µM
# [32] = second compound 10 µM, first compound 0.1 µM
# [33] = second compound 10 µM, first compound 0.316 µM
# [34] = second compound 10 µM, first compound 1 µM
# [35] = second compound 10 µM, first compound 3.16 µM
# [36] = second compound 10 µM, first compound 10 µM
# 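Also: viability read after seven days of drug exposure.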
# 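For viability, T/C in this document: luminescence signal used as a proxy for viable cells; 100% = DMSO vehicle control wells.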
structure (smiles),measurement,setting,value
C=CC(=O)N1CCN(c2nc(=O)n(-c3c(C)ccnc3C(C)C)c3nc(-c4c(O)cccc4F)c(F)cc23)C(C)C1 (stereo not drawn) + Cc1cnc(CNC(=O)c2c(=O)c3ccc(N4CCCN(C)CC4)nc3n3c2sc2ccccc23)cn1,IC50,second compound 0.0316 µM,< 31.6 nM
same,IC50,second compound 0.1 µM,< 31.6 nM
same,IC50,second compound 0.316 µM,< 31.6 nM
same,IC50,second compound 1 µM,< 31.6 nM
same,IC50,second compound 3.16 µM,< 31.6 nM
same,IC50,second compound 10 µM,< 31.6 nM
same,"viability, T/C",[1],41.6%
same,"viability, T/C",[2],45.5%
same,"viability, T/C",[3],43.1%
same,"viability, T/C",[4],45.7%
same,"viability, T/C",[5],51%
same,"viability, T/C",[6],43%
same,"viability, T/C",[7],28.8%
same,"viability, T/C",[8],30.6%
same,"viability, T/C",[9],31.7%
same,"viability, T/C",[10],33.1%
same,"viability, T/C",[11],35.1%
same,"viability, T/C",[12],28.1%
same,"viability, T/C",[13],24.7%
same,"viability, T/C",[14],25.1%
same,"viability, T/C",[15],25.2%
same,"viability, T/C",[16],29.9%
same,"viability, T/C",[17],31.1%
same,"viability, T/C",[18],28%
same,"viability, T/C",[19],24.6%
same,"viability, T/C",[20],22.8%
same,"viability, T/C",[21],24.1%
same,"viability, T/C",[22],25.4%
same,"viability, T/C",[23],21.7%
same,"viability, T/C",[24],25.7%
same,"viability, T/C",[25],24%
same,"viability, T/C",[26],21.5%
same,"viability, T/C",[27],25.9%
same,"viability, T/C",[28],27.9%
same,"viability, T/C",[29],29.5%
same,"viability, T/C",[30],26.8%
same,"viability, T/C",[31],21.5%
same,"viability, T/C",[32],22.9%
same,"viability, T/C",[33],23.9%
same,"viability, T/C",[34],22.1%
same,"viability, T/C",[35],26.7%
same,"viability, T/C",[36],25.2%
CC(C)(O)C1CCC(Nc2ccc3ncc(-c4cccc(C(F)(F)F)c4)n3n2)CC1 (stereo not drawn) + Cc1cnc(CNC(=O)c2c(=O)c3ccc(N4CCCN(C)CC4)nc3n3c2sc2ccccc23)cn1,IC50,second compound 0.0316 µM,358 nM
same,IC50,second compound 0.1 µM,< 31.6 nM
same,IC50,second compound 0.316 µM,< 31.6 nM
same,IC50,second compound 1 µM,< 31.6 nM
same,IC50,second compound 3.16 µM,< 31.6 nM
same,IC50,second compound 10 µM,< 31.6 nM
same,"viability, T/C",[1],52.8%
same,"viability, T/C",[2],51.1%
same,"viability, T/C",[3],51.6%
same,"viability, T/C",[4],37.6%
same,"viability, T/C",[5],22%
same,"viability, T/C",[6],21.3%
same,"viability, T/C",[7],28.9%
same,"viability, T/C",[8],32.1%
same,"viability, T/C",[9],32.7%
same,"viability, T/C",[10],29.3%
same,"viability, T/C",[11],16.6%
same,"viability, T/C",[12],18.6%
same,"viability, T/C",[13],25.3%
same,"viability, T/C",[14],28.4%
same,"viability, T/C",[15],27.2%
same,"viability, T/C",[16],24.4%
same,"viability, T/C",[17],18.2%
same,"viability, T/C",[18],16%
same,"viability, T/C",[19],17.9%
same,"viability, T/C",[20],27.1%
same,"viability, T/C",[21],25.6%
same,"viability, T/C",[22],22.4%
same,"viability, T/C",[23],18.7%
same,"viability, T/C",[24],13.9%
same,"viability, T/C",[25],19.7%
same,"viability, T/C",[26],22.3%
same,"viability, T/C",[27],25.1%
same,"viability, T/C",[28],23.3%
same,"viability, T/C",[29],12.7%
same,"viability, T/C",[30],7.93%
same,"viability, T/C",[31],19.2%
same,"viability, T/C",[32],24.1%
same,"viability, T/C",[33],24.4%
same,"viability, T/C",[34],21.3%
same,"viability, T/C",[35],0.12%
same,"viability, T/C",[36],0.11%
COc1cc(C2c3cc4c(cc3C(OC3OC5COC(C)OC5C(O)C3O)C3COC(=O)C23)OCO4)cc(OC)c1O (stereo not drawn) + Cc1cnc(CNC(=O)c2c(=O)c3ccc(N4CCCN(C)CC4)nc3n3c2sc2ccccc23)cn1,IC50,second compound 0.0316 µM,< 31.6 nM
same,IC50,second compound 0.1 µM,< 31.6 nM
same,IC50,second compound 0.316 µM,< 31.6 nM
same,IC50,second compound 1 µM,< 31.6 nM
same,IC50,second compound 3.16 µM,< 31.6 nM
same,IC50,second compound 10 µM,< 31.6 nM
same,"viability, T/C",[1],28.9%
same,"viability, T/C",[2],21.4%
same,"viability, T/C",[3],18.5%
same,"viability, T/C",[4],14.2%
same,"viability, T/C",[5],13.7%
same,"viability, T/C",[6],10.5%
same,"viability, T/C",[7],25.8%
same,"viability, T/C",[8],22.7%
same,"viability, T/C",[9],18.6%
same,"viability, T/C",[10],13.6%
same,"viability, T/C",[11],16.5%
same,"viability, T/C",[12],12.9%
same,"viability, T/C",[13],22.2%
same,"viability, T/C",[14],21.3%
same,"viability, T/C",[15],17.8%
same,"viability, T/C",[16],16.4%
same,"viability, T/C",[17],17%
same,"viability, T/C",[18],13.2%
same,"viability, T/C",[19],21.5%
same,"viability, T/C",[20],19.1%
same,"viability, T/C",[21],17.6%
same,"viability, T/C",[22],18.9%
same,"viability, T/C",[23],17.8%
same,"viability, T/C",[24],12.5%
same,"viability, T/C",[25],19.3%
same,"viability, T/C",[26],16.4%
same,"viability, T/C",[27],19.6%
same,"viability, T/C",[28],19.2%
same,"viability, T/C",[29],18.2%
same,"viability, T/C",[30],13.4%
same,"viability, T/C",[31],17.8%
same,"viability, T/C",[32],18.5%
same,"viability, T/C",[33],19.4%
same,"viability, T/C",[34],19.2%
same,"viability, T/C",[35],17.7%
same,"viability, T/C",[36],12.3%
Cc1[nH]c2ccccc2c1CCNCc1ccc(/C=C/C(=O)NO)cc1 + Cc1cnc(CNC(=O)c2c(=O)c3ccc(N4CCCN(C)CC4)nc3n3c2sc2ccccc23)cn1,IC50,second compound 0.0316 µM,< 0.999 nM
same,IC50,second compound 0.1 µM,< 0.999 nM
same,IC50,second compound 0.316 µM,< 0.999 nM
same,IC50,second compound 1 µM,< 0.999 nM
same,IC50,second compound 3.16 µM,< 0.999 nM
same,IC50,second compound 10 µM,< 0.999 nM
same,"viability, T/C","second compound 0.0316 µM, first compound 0.000999 µM",49.7%
same,"viability, T/C","second compound 0.0316 µM, first compound 0.00316 µM",28.9%
same,"viability, T/C","second compound 0.0316 µM, first compound 0.00999 µM",20.8%
same,"viability, T/C",[1],12.3%
same,"viability, T/C","second compound 0.0316 µM, first compound 0.0999 µM",6.33%
same,"viability, T/C",[3],8.17%
same,"viability, T/C","second compound 0.1 µM, first compound 0.000999 µM",32.3%
same,"viability, T/C","second compound 0.1 µM, first compound 0.00316 µM",22.8%
same,"viability, T/C","second compound 0.1 µM, first compound 0.00999 µM",24.6%
same,"viability, T/C",[7],12.8%
same,"viability, T/C","second compound 0.1 µM, first compound 0.0999 µM",6.63%
same,"viability, T/C",[9],8.31%
same,"viability, T/C","second compound 0.316 µM, first compound 0.000999 µM",26.1%
same,"viability, T/C","second compound 0.316 µM, first compound 0.00316 µM",24.2%
same,"viability, T/C","second compound 0.316 µM, first compound 0.00999 µM",18.9%
same,"viability, T/C",[13],13.2%
same,"viability, T/C","second compound 0.316 µM, first compound 0.0999 µM",9.48%
same,"viability, T/C",[15],8.5%
same,"viability, T/C","second compound 1 µM, first compound 0.000999 µM",21.1%
same,"viability, T/C","second compound 1 µM, first compound 0.00316 µM",20.9%
same,"viability, T/C","second compound 1 µM, first compound 0.00999 µM",18.7%
same,"viability, T/C",[19],11.1%
same,"viability, T/C","second compound 1 µM, first compound 0.0999 µM",8.25%
same,"viability, T/C",[21],8.1%
same,"viability, T/C","second compound 3.16 µM, first compound 0.000999 µM",20.2%
same,"viability, T/C","second compound 3.16 µM, first compound 0.00316 µM",23.3%
same,"viability, T/C","second compound 3.16 µM, first compound 0.00999 µM",21.2%
same,"viability, T/C",[25],12.3%
same,"viability, T/C","second compound 3.16 µM, first compound 0.0999 µM",10.4%
same,"viability, T/C",[27],5.1%
same,"viability, T/C","second compound 10 µM, first compound 0.000999 µM",22.6%
same,"viability, T/C","second compound 10 µM, first compound 0.00316 µM",24.1%
same,"viability, T/C","second compound 10 µM, first compound 0.00999 µM",20.1%
same,"viability, T/C",[31],11.8%
same,"viability, T/C","second compound 10 µM, first compound 0.0999 µM",12.2%
same,"viability, T/C",[33],0.15%
